Where a SMILES comes first, the peptide text is derived from it.

`O=C(/C=N/O)c1ccccc1`: the pKa (acidic group) was 8.31. The same measure, in the same setting: in the case of `OB1OCc2ccccc21` it was 7.38. Take `[O-]c1cccnc1`: the pKa (basic group) came to 8.6. As for `Cc1cc(Br)c(N)c(Br)c1`, the pKa (basic group) worked out at 0.69. Still for that read-out and setting: in the case of `Nc1ncnc2ncn([C@H]3O[C@H](CO)[C@@H](O)[C@H]3O)c12` it was 3.9. On to `CNC(=O)/C=C(/C)C(=O)O`, for which the pKa (acidic group) is 3.23.

For the compound `O=[N+]([O-])c1cccc2cnccc12`, the pKa (basic group) came to 3.46.

For `Cc1ncc(C(=O)O)s1`, for the setting “acidic group”, the pKa is 3.26. Consider `CNc1nc2ncncc2[nH]1`, for which the pKa (acidic group) was 9.56 and the pKa (basic group) was 4.78. Under “acidic group”, `Cc1ccc(O)c(Cc2cc(C)cc([N+](=O)[O-])c2[O-])c1` came in with a pKa of 11.7. The same measure, in the same setting: under `[NH3+]CCCCCCCC(=O)O` stands 4.5. `CC[NH+](CC)CCCNc1ccnc2ccccc12` showed a pKa (basic group) of 8.65. Same read-out and setting: in the case of `COC(=O)c1ccncc1` it was 3.38; in that of `CC(C)(C)N1NC2CCC1CC2`, 9.54. Same read-out and setting: in the case of `c1ccc2c(c1)CNCCCNCc1ccccc1OCCO2` it was 9.82. Still for that read-out and setting: under `C1=C(c2ccco2)C2CCN1CC2` stands 8.92. For the setting “acidic group”, `O=C(O)C1=C(CO)CCC1` yielded a pKa of 4.54. Where the note is “basic group”, `CC1CCNCC1` gave a pKa of 10.9. As for `O=C1C[C@@H](C(=O)O)[C@@H](C(=O)O)O1`, the pKa (acidic group) was 2.26.

The compound `CCC(=O)C(CC(C)N(C)C)(c1ccccc1)c1ccccc1` (centres undefined) returned a pKa (basic group) of 8.62.

For the setting “basic group”, `CCCCC(N)C(=O)[O-]` (centres undefined) gave a pKa of 9.89. Compound `O=C(O)[C@@H]1O[C@H](Oc2ccc3[nH+]cccc3c2)[C@@H](O)[C@H](O)[C@H]1O` gave a pKa (acidic group) of 3.

`CC(C)c1ccncc1` registered a pKa (basic group) of 6.02. Regarding `CC(C)NCC(O)COc1ccccc1` (centres undefined), the pKa (basic group) was determined as 9.45. Take `O=C(O)c1ccc(Br)cc1`: where the note is “acidic group”, the pKa was determined as 3.99.

In turn, `NCc1ccc(Cl)cc1[N+](=O)[O-]` registered a pKa (basic group) of 8.34.

For the compound `NS(=O)(=O)c1ccc(Cl)c(Cl)c1`, the pKa (acidic group) was determined as 8.94. Regarding `c1ccc(-c2cc(-c3ccccc3)c(NCC[NH+]3CCOCC3)nn2)cc1`, where the note is “basic group”, the pKa was 3.36. Under “acidic group”, `NC1=[NH+][C@H](C(=O)O)[C@@H]([C@H](O)C[NH3+])N1` gave a pKa of 2.4.

Compound `CCN(CC)Cc1c([O-])c(Cl)cc(Cl)c1Cl` showed a pKa (basic group) of 11.8.

On to `C=C[C@]1(O)C[NH+]2CC[C@H]1C[C@@H]2[C@@H](O)c1ccnc2ccc(OC)cc12`, for which, where the note is “basic group”, the pKa was 4.12. Compound `CNc1ncnc2c1cnn2C` returned a pKa (basic group) of 4.24. In turn, `c1ccc(-c2ccc(NCC[NH+]3CCOCC3)nn2)cc1` showed a pKa (basic group) of 3.74.

Compound `O=C(O)C(CO)[NH2+]Cc1cc(Cl)ccc1O` (centres undefined) showed a pKa (acidic group) of 2.12.

For the setting “basic group”, `COC(=O)Cc1ccccc1N` showed a pKa of 3.71.

Under “basic group”, `C[C@H](N)C(=O)N[C@@H](Cc1c[nH]cn1)C(=O)[O-]` (H-Ala-His-OH) registered a pKa of 8.08. The same measure, in the same setting: under `CC(C)([NH3+])C(N)=S` stands -8.75. On to `[NH3+]Cc1ccc(C(=O)O)cc1`, for which the pKa (acidic group) turned out to be 3.59. Turning to `C1CCC(C2CCCN2)CC1` (centres undefined), where the note is “basic group”, the pKa came out at 10.8. `CC(C)(C)CN` had a pKa (basic group) of 10.2. In turn, `C[n+]1ccn(CCC[n+]2ccc(/C=N/O)cc2)c1` showed a pKa (acidic group) of 8.05. With `O=C(c1ccccc1)c1ccc(O)cc1`, the pKa (acidic group) was 8.01. This pKa and that of the compound before are within 0.2 log units of each other.

Compound `O=C(O)/C(I)=C\c1ccccc1` showed a pKa (acidic group) of 2.24. Still for that read-out and setting: in the case of `O=[N+]([O-])c1cc(Cl)ccc1O` it was 3.5. As for `c1ccc(-c2cc[nH+]cc2)nc1`, the pKa (basic group) is 1.19. Still for that read-out and setting: under `OCCCNc1ccccc1` stands 4.53.

Take `Cc1ncc2c(c1O)C(=O)OC2`: under “acidic group”, the pKa amounted to 7.05. For `C[C@@H]1CC[C@@H]2CCCN21`, the pKa (basic group) was 12.

Compound `CC=C=CC(=O)CC(Cc1ccccc1)C(=O)[O-]` (centres undefined) had a pKa (acidic group) of 13.9. In the case of `O=[N+]([O-])c1ccc2[nH]c(CO)nc2c1`, the pKa (basic group) is 2.21. Same read-out and setting: under `C[NH+](C)CCCNc1ccnc2cccc([N+](=O)[O-])c12` stands 6.39; under `c1ccc(C2NCCS2)cc1` (centres undefined), 5.2. Regarding `N#Cc1cccnc1`, under “basic group”, the pKa was found to be 1.48.

For orientation: pKa means the negative logarithm of the acid dissociation constant. Low values mean a stronger acid or weaker base, high ones a weaker acid or stronger base.

(Values after the pKa sets of Baltruschat and Czodrowski (2020).)
